The text below walks through data of US20230172928A1 (priority 2020, published 2023).

Data set [1] is described as follows: Adverse events of decreased left ventricular ejection fraction. The arrangement: species or system human. Conditions: in vivo. From the text: Patients with EGFR-mutant NSCLC have a high disease control rate with EGFR inhibitors (e.g., erlotinib, gefitinib, osimertinib), but resistance invariably develops. Resistance mechanisms are heterogeneous, but commonly result in restoration of mutant EGFR signaling and/or amplification or overexpression of RTKs other than EGFR (such as MET) or of their ligands.

For a further data set, the system named is HCC4006 cells. As to the kind of experiment: Cell proliferation / combination dose matrix assay (CellTiter-Glo). In kind it is cell-based. Conditions: Homo sapiens; HCC4006, EGFR ex19del. As for the experimental part: (§1) Human cancer cell lines originated from the CCLE (Cancer Cell Line Encyclopedia) authenticated by single-nucleotide polymorphism analysis and tested for mycoplasma infection using a PCR-based detection technology (IDEXX BioAnalytics) when CCLE was established in 2012. All cell lines used were directly thawed from the CCLE collection stock. All cell lines were cultured in RPMI Medium (ThermoFisher Scientific) except HT-29 (McCoy's 5A), RKO (MEMα), MDST8 (DMEM), A-427 (MEMα) and MIA PaCA-2 (DMEM), supplemented with 10% FBS (VWR). Cell lines were used within 15 passages of thawing and continuously cultured for less than 6 months.
(§2) For combination dose matrix assay, 2000 to 3000 cells were seeded in 96-well plates in 80 μL media per well. On the second day, serial dilutions of the two combination agents were subsequently added, each in 20 μL media at 6× of final indicated concentrations. 3 days later, cell viability was measured by the CellTiter-Glo Assay (Promega #G7573). The mean and standard deviation (n=3) of percentages of inhibition (relative to the DMSO-treated control) of compound-treated cells and synergy scores between the two compounds were determined. Synergy scores greater than 2 are considered to have synergistic rather than additive effects.
(§3) Statistical analyses were performed and curve fit and IC50 values were generated using GraphPad Prism 8 software. Statistical significance was determined using unpaired, paired student t test, or Mann-Whitney test. Significance was set at p=0.05.
For orientation: In ATP-based viability assays light output follows the ATP content of the culture.

The test system of a further data set is HCC2279 cells. Described as above. Conditions: Homo sapiens; HCC2279, EGFR ex19del. The class given is cell-based. The protocol: as §1, §2, §3
Another data set deals with NCI-H3255 cells. Described as above. Conditions: Homo sapiens, NCI-H3255, NCI-H3255, EGFR L858R. In kind it is cell-based. The protocol: as §1, §2, §3
A further data set relates to NCI-H1650 cells. The description is as above. In kind it is cell-based. Conditions: Homo sapiens; NCI-H1650, EGFR ex19del. The protocol: as §1, §2, §3
Another data set deals with HCC827 cells. Described as above. The class given is cell-based. Conditions: Homo sapiens, HCC827, HCC827, EGFR ex19del.
Data set [2] has as its system patients with EGFRmutated NSCLC. As to the kind of experiment: First-in-human study of nazartinib (CEGF816X2101). Conditions: 75 mg to 350 mg QD. In kind it is in vivo. The protocol:
Nazartinib has been studied in 7 clinical trials.
(§4) The starting dose of nazartinib in this study is 150 mg QD, dosed continuously. In CEGF816X2101, the first-in-human study of nazartinib, doses of nazartinib from 75 mg daily to 350 mg daily were investigated. […] Thus the starting dose of 20 mg QD, 2 weeks on/1 week off provides an adequate tolerability margin for combination with nazartinib 150 mg QD.

The subject of data set [3] is PC14 cells. Nature of the data set: Cell proliferation / combination dose matrix assay (CellTiter-Glo). Conditions: for IC50: Homo sapiens, PC-14, PC14, EGFR ex19del. In kind it is cell-based, human. The protocol:
(§5) Human cancer cell lines originated from the CCLE (Cancer Cell Line Encyclopedia) authenticated by single-nucleotide polymorphism analysis and tested for mycoplasma infection using a PCR-based detection technology (IDEXX BioAnalytics) when CCLE was established in 2012. All cell lines used were directly thawed from the CCLE collection stock. All cell lines were cultured in RPMI Medium (ThermoFisher Scientific) except HT-29 (McCoy's 5A), RKO (MEMα), MDST8 (DMEM), A-427 (MEMα) and MIA PaCA-2 (DMEM), supplemented with 10% FBS (VWR). Cell lines were used within 15 passages of thawing and continuously cultured for less than 6 months. For combination dose matrix assay, 2000 to 3000 cells were seeded in 96-well plates in 80 μL media per well. On the second day, serial dilutions of the two combination agents were subsequently added, each in 20 μL media at 6× of final indicated concentrations. 3 days later, cell viability was measured by the CellTiter-Glo Assay (Promega #G7573). The mean and standard deviation (n=3) of percentages of inhibition (relative to the DMSO-treated control) of compound-treated cells and synergy scores between the two compounds were determined. […] Statistical analyses were performed and curve fit and IC50 values were generated using GraphPad Prism 8 software. Statistical significance was determined using unpaired, paired student t test, or Mann-Whitney test. Significance was set at p=0.05. […] After 3 days (PC14) or 6 days (NCI-H1975), cell proliferation was measured using the Cell Titer-Glo® assay and luminescent signals of each dose combination were normalized to that of the DMSO (vehicle control) group.

The test system of the next data set is NCI-H1975 cells. Described as above. The class given is cell-based, human. Conditions: for IC50: Homo sapiens, NCI-H1975, EGFR L858R/T790M. As for the experimental part:
as §5

The target of a further data set is CYP3A4 (Homo sapiens, UniProt P08684). Nature of the data set: CYP3A4 interaction / metabolism.
Data set [4] relates to PC14 cells. Nature of the data set: Immunoblot of PC14 cell lysates (p-ERK, c-PARP, BIM). In kind it is cell-based, human. Conditions: nazartinib 0.1 or 0.3 μM, 3 μM TNO155 or combination, 4 h or 24 h. The protocol:
For immunoblotting: Cells (200,000 to 750,000) in 2 mL growth media were seeded in 6-well plates (Corning, #3506). After 24 hours, cells were treated with compounds or growth factors at the indicated concentrations and duration. Cells were lysed on ice in RIPA buffer (Boston Bioproduct #BP-115) supplemented with 1 mM EDTA and Halt Protease and Phosphatase Inhibitor Cocktail (Thermo Fisher Scientific #1861281). Lysates were centrifuged at 14,000 rpm at 4° C. for 15 minutes and protein concentrations were determined using BCA protein assay (Thermo Fisher Scientific). […] The bound primary antibodies were visualized using Goat anti-rabbit IgG secondary antibody conjugated with Alexa Fluor 700 and goat anti-mouse IgG secondary antibody conjugated with IRDye 800 CW and scanning with an Odyssey Infrared Imager System (Li-Cor). […]

The next data set deals with PC9 cells. Nature of the data set: Cell proliferation / combination dose matrix assay (CellTiter-Glo). The class given is cell-based, human. As for the experimental part: as §1, §2, §3
In data set [5] the test system is DETROIT-562 (pharyngeal squamous cell carcinoma) cells. Nature of the data set: in vitro antiproliferation. The class given is cell-based. Conditions: Homo sapiens.
Data set [6] has as its system EGFR-dependent DETROIT-562 cancer cell line. Nature of the data set: In vivo SHP2 inhibition and efficacy, DETROIT-562 model. Conditions: orally-administered, 20 mg/kg.
A short description of data set [7]: TNO155 regimens tested in patients. The class given is in vivo, human. Conditions: 60 mg QD 2 weeks on/1 week off and 40 mg QD 3 weeks on/1 week off. As for the experimental part: as §4
Data set [8] concerns EGFR L858R model 29667HXXTM. Conditions: osimertinib 10 mpk daily, TNO155 10 mpk BID.
Data set [9] has as its system pERK in DETROIT-562 (pharyngeal squamous cell carcinoma) cells. Nature of the data set: in vitro pERK inhibition. In kind it is cell-based. Conditions: Homo sapiens.
Data set [10] has as its system EGFR L858R model 29665HXXTM. Conditions: osimertinib 10 mpk daily, TNO155 10 mpk BID.
Data set [11] concerns EGFR L858R model 29666HXXTM. Conditions: osimertinib 10 mpk daily, TNO155 10 mpk BID.
For data set [12] the following is noted: mice.
For data set [13], the system named is pERK in KYSE-520 (esophageal squamous cell carcinoma) cells. Nature of the data set: in vitro pERK inhibition. Conditions: Homo sapiens. In kind it is cell-based.
The subject of data set [14] is KYSE-520 (esophageal squamous cell carcinoma) cells. Nature of the data set: in vitro antiproliferation. The class given is cell-based. Conditions: Homo sapiens.
For data set [15] the following is noted: Tagrisso prescribing information; cited from earlier work.
Setting [16] is: Homo sapiens, PC-9, PC9, EGFR ex19del.

As usually defined, the IC50 is the concentration that gives 50% inhibition.

Structures are written as SMILES. Where “and” joins values, the source holds several entries; their conditions need not be identical. Equal entries are not always repeated. Where two headings read alike, the source gives them in different places.

CYP3A4, sequence (P08684 whole entry): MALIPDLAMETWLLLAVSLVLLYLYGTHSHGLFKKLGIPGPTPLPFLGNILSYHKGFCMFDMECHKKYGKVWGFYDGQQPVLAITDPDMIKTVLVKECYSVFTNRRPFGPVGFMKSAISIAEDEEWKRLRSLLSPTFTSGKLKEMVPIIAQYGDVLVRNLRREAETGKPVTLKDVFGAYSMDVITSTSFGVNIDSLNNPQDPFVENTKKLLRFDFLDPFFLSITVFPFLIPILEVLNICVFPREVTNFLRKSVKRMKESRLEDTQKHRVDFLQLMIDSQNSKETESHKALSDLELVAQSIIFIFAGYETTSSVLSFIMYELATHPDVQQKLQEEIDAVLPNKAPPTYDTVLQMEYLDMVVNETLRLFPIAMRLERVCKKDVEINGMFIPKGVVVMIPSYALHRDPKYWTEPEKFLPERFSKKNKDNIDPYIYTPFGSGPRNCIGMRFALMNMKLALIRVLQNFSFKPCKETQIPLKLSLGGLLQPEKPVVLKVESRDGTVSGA
Source text for HCC827 cells: Human cancer cell lines originated from the CCLE (Cancer Cell Line Encyclopedia) authenticated by single-nucleotide polymorphism analysis and tested for mycoplasma infection using a PCR-based detection technology (IDEXX BioAnalytics) when CCLE was established in 2012. All cell lines used were directly thawed from the CCLE collection stock. […] Cell lines were used within 15 passages of thawing and continuously cultured for less than 6 months.

With `Cc1cc(C(=O)Nc2nc3cccc(Cl)c3n2[C@@H]2CCCCN(C(=O)/C=C/CN(C)C)C2)ccn1` [Nazartinib, (R,E)-N-(7-chloro-1-(1-(4-(dimethylamino)but-2-enoyl)azepan-3-yl)-1H-benzo[d]imidazol-2-yl)-2-methylisonicotinamide], the “adverse events of decreased left ventricular ejection fraction” value in data set [1] is given as “not associated with adverse events of decreased left ventricular ejection fraction”. The IC50 in the data set with HCC4006 cells is 60 nM; in the data set with HCC2279 cells, above 3000 nM; with NCI-H3255 cells, 10 nM; in the data set on NCI-H1650 cells it was above 3000 nM; in the data set with HCC827 cells, 40 nM; in the data set with PC14 cells [3], 50 nM. For the same compound, the IC50 was 170 nM in the data set on NCI-H1975 cells and 10 nM in the data set on PC9 cells (setting [16]). Besides, the anti-tumor efficacy entry in data set [2] is “anti-tumor efficacy was observed at all doses”. Moreover, in [2], the maximum tolerated dose result is listed as “not established”. On CYP3A4, the metabolism result is “primarily metabolized by CYP3A4”. Further, in the data set with PC14 cells [4], the p-ERK levels entry is on record as “rebound of p-ERK levels was observed after 24 h”.

Turning to `C[C@@H]1OCC2(CCN(c3cnc(Sc4ccnc(N)c4Cl)c(N)n3)CC2)[C@@H]1N` [TNO155, (3S,4S)-8-(6-amino-5-((2-amino-3-chloropyridin-4-yl)thio)pyrazin-2-yl)-3-methyl-2-oxa-8-azaspiro[4.5]decan-4-amine], the IC50 in data set [5] was 470 nM; in the data set with HCC4006 cells, above 10000 nM; in the data set with HCC2279 cells, above 10000 nM; in the data set with NCI-H1650 cells it was above 10000 nM; in data set [9], 35 nM; in the data set with PC14 cells [3], 5010 nM. The IC50 in the data set with NCI-H1975 cells was above 10000 nM; in the data set on PC9 cells (setting [16]) it was below 1500 nM; in the data set with PC9 cells (PC9, EGFR ex19del) it was 1460 nM; in data set [13] it was 8 nM and 0.0034 µg/mL; in data set [14] it was 100 nM. Besides, the “decrease in DUSP6 mRNA transcript” value in [6] is “approximately 95%”. In data set [6] (twice-daily schedule), the regression worked out at 47%. In addition, the tolerability entry in data set [7] is given as “tolerated”. For the same compound, the “anti-tumor activity (tumor volume)” value is reported as “minimal activity” in data set [8], “minimal activity” in data set [10] and “effectively slowed down the tumor growth” in data set [11]. Moreover, the single agent activity result was “lacks single agent activity” with PC14 cells [3] (PC14, low concentrations, e.g. 0.124 μM) and “lacks single agent activity” in the data set on NCI-H1975 cells (NCI-H1975, low concentrations, e.g. 0.124 μM). In addition, the “CYP3A4 induction / inhibition” value at CYP3A4 (human) is given as “neither an inducer nor inhibitor of CYP3A4”. The p-ERK levels result in the data set on PC14 cells [4] was “effectively reduced p-ERK levels at 4 h but also suffered a rebound at 24 h”. Besides, the half-life entry in [12] is given as “short half-life”. For the same compound, in [12] (twice a day (BID)), the maximum tolerated dose is recorded as 20 mg per kilogram body weight (mpk).

As for `C=CC(=O)Nc1cc(Nc2nccc(-c3cn(C)c4ccccc34)n2)c(OC)cc1N(C)CCN(C)C` [osimertinib, reference compound], the “adverse events of decreased left ventricular ejection fraction” value in data set [15] is on record as “Such events have been described”. Moreover, the entries for the “anti-tumor activity (tumor volume)” value in [8], in data set [10] and in [11] were “modest”, “strong” and “only transient efficacy”, respectively.
